In patent US10342786B2, “P38 kinase inhibitors reduce DUX4 and downstream gene expression for the treatment of FSHD” (Fulcrum Therapeutics, Inc., priority 2017, dated 2019):

Tests used:
Format in all cases: cell-based, human
[1] = tested on: active Caspase-3 in FSHD myotubes; experiment: Apoptosis by active Caspase-3 in FSHD myotubes; conditions: FSHD1 and FSHD2 lines; vs healthy control line CTRL-FTCE-014
Method: Briefly, cells were fixed in 4% paraformaldehyde and […] for 10 min at room temperature. Cells were permeabilized with PBST (1×PBS solution with 0.1% Triton X-100) before blocking with 10% Normal Donkey Serum or 3% BSA (NDS) in PBST. Cells were then incubated with appropriately diluted primary antibodies in PBST with 5% NDS for 1 hours at room temperature or 12 hours at 4° C., washed with PB ST for 3 times at room temperature and then incubated with desired secondary antibodies in TBST with 5% NDS and DAPI to counter stain the nuclei. DUX4 was detected by immunocytochemistry using the E5-5 antibody in differentiated FSHD myotubes. Activated Caspase-3 was detected cell signaling antibody that we're using for ICC, Asp175 (https://www.cellsignal.com/products/primary-antibodies/cleaved-caspase-3-asp175-antibody/9661).
Apoptosis was measured by active Caspase-3 levels in FSHD myotubes in vitro as described in Materials and Methods. Apoptosis was detected in a sporadic manner in a subset of myotubes in culture as shown by the white circles and magnified region in FIG. 9A. Active Caspase-3 signal was quantified in FSHD myotubes that had been treated with FTX-1821 at different concentrations (FIG. 9B). […] No change in active Caspase-3 signal was observed following DMSO treatment.

FSHD myotubes = experiment: Myotube formation / fusion (MHC and DAPI staining); conditions: 10, 100, and 1000 nM; FSHD myotubes
Method: On day 0, change to differentiation media. Remove plates from the incubator and aspirate the growth medium, Wash once with PBS, 100 μL for 96-wells and 1 mL for a 6-well plate, Add 100 μL or 2 mL of differentiation medium per well, 96- or 6-well respectively. Add antisense oligonucleotides or drug at the desire concentration and put back in the incubator. Fusion should start within day 1-2. Incubate for 3-4 days.
Briefly, cells were fixed in 4% paraformaldehyde and […] for 10 min at room temperature. Cells were permeabilized with PBST (1×PBS solution with 0.1% Triton X-100) before blocking with 10% Normal Donkey Serum or 3% BSA (NDS) in PBST. […] DUX4 was detected by immunocytochemistry using the E5-5 antibody in differentiated FSHD myotubes. Activated Caspase-3 was detected cell signaling antibody that we're using for ICC, Asp175 (https://www.cellsignal.com/products/primary-antibodies/cleaved-caspase-3-asp175-antibody/9661).
Immortalized FHSD myotubes were differentiated and treated with DMSO vehicle control or FTX-1821 at concentrations of 1 μM, 0.33 μM, 0.11 μM or 0.037 μM. […] The nuclei in myotubes were quantified according to […] staining (FIG. 8B).

[2] = tested on: ZSCAN4, TRIM43, LEUTX, KHDC1L; experiment: DUX4-regulated downstream genes by real time PCR in FSHD myotubes; conditions: 1 μM ASO; FSHD myotubes vs DMSO
Method: For qPCR, dilute 1:10 and use 2 μL for a 10 μL 1-step RT-qPCR reaction. For detection of GAPDH, RPLPO, TBP, MYOG, FRG1, MYH3, ACTN2, etc.). Per 10 μL reaction: RNA (1:10 dilution lysate) 2 μL, Fast Advanced Taqman Master Mix (2×) 5 μL, RT enzyme mix (40×) 0.25 μL, Taqman probe set (20×) 0.5 μL, H2O 2.25 μL. The following reaction protocol was run on the QuantStudio 7: 48° C. for 15 min, 50° C. for 2 min, 95° C. for 30 sec, 40×, 95° C. for 5 sec, 60° C. for 30 sec, then plates were read as specified by the manufacturer (Thermo). For 1-step RT-Preamplification used for detection of DUX4 downstream genes, i.e. MBD3L2, ZSCAN4, LEUTX, TRIM43, KHDC1L. POL2RA-VIC was used as Endogenous control). Per 10 μL reaction: RNA (1:10 dilution lysate) 2.25 μL, Taqman Pre-Amp Master Mix (2×) 5 μL, RT enzyme mix (40×) 0.25 μL, Taqman probe set (0.2×)*2.5 μL, * Pooling the TaqMan Assays: equal volumes of each 20× TaqMan® Gene Expression Assay, up to 100 assays were combined. For example, to pool 50 TaqMan assays, 10 μL of each assay were combined in a microcentrifuge tube. The pooled TaqMan assays were diluted using 1×TE buffer so that each assay is at a final concentration of 0.2×. For the above example, add 500 μL of 1×TE buffer to the pooled TaqMan assays for a total final volume of 1 mL. The QuantStudio7 protocol was used 48° C. 15 min, 95° C. 10 min, 10 cycles: 95° C. 15 sec, 60° C. 4 min, 4° C. infinite. Samples were then diluted to 50 μL and continue with the qPCR step. Per 10 μL reaction: Preamp dilution 2 μL, Fast Advanced Taqman Master Mix (2×) 5 μL, Taqman probe set (20×) 0.5 μL, H2O 2.5 μL. When multiplexing the volume was adjusted to 10 μL total). The following program was run on the QuantStudio7: 50° C. for 2 min, 95° C. for 30 sec, 40×, 95° C. for 5 sec, 60° C. for 30 sec, plates were read as per the manufacturers specifications (Thermo).
Wild type myotubes were treated with DMSO control vehicle, and mature patient-derived FSHD myotubes that express DUX4 protein were treated with DMSO vehicle control or 1 μM of a DUX4 sequence-directed antisense oligonucleotide (ASO; FTX-2) purchased from Exiqon. After treatment, the myotubes were lysed in 19.5 μL of Roche Real Time Ready Lysis Buffer, 0.25 μL of DNAsel (Ambion, AM2222), 0.25 μL of Protector RNase Inhibitor (Roche, 3335402001), and the RNA was collected in an RNeasy Micro Kit Master Mix. Expression levels of DUX4-regulated downstream genes (ZSCAN4, TRIM43, MBD3L2, LEUTX, and KHDC1L) was determined by real time PCR (ThermoFisher Scientific, 4484262), ZSCAN4 Taqman Assay (ThermoFisher Scientific, Hs00537549 ml, FAM-MGB), MYOG Taqman Assay (ThermoFisher Scientific, Hs01072232_ml, JUN-QSY), RPLPO Taqman Assay (ThermoFisher Scientific, Hs99999902_ml), and/or LEUTX Taqman Assay (ThermoFisher Scientific, Hs00418470_ml). […]

For `Cn1c(=O)c(Oc2ccc(F)cc2F)cc2cnc(NC(CCO)CCO)nc21` [Pamapimod, 6-(2,4-difluorophenoxy)-2-((1,5-dihydroxypentan-3-yl)amino)-8-methylpyrido[2,3-d]pyrimidin-7(8H)-one], the “apoptosis (active caspase-3)” value [1] was “reduction” and the differentiation into myotubes (FSHD myotubes) was “without impacting”.

“FTX-2: DUX4 sequence-directed antisense oligonucleotide purchased from Exiqon, CAGCGTCGGAAGGTGG (SEQ ID NO: 1) (listed as DNA, chemistry not given here)” was tested, and the KHDC1L expression [2] was “reduced amounts”, the LEUTX expression [2] was “reduced amounts” and the TRIM43 expression [2] was “reduced amounts”. For the same compound, the ZSCAN4 expression [2] was “reduced amounts”.
